In paper PMC12274840 (The Journal of Biological Chemistry, 2025):
In brackets after ≈: the same amount, converted by molar mass. Read-outs that look alike come from different tables or passages of the source.

What was measured:
[1] = test system: E. coli KA797 cells carrying pUK21 with KPC-2 (Tat); experiment: microbe, parasite or virus in culture; format: cell-based; settings: Escherichia coli, antibiotic alone
[2] = test system: E. coli KA797 cells carrying KPC-2 position 105 library; format: cell-based; settings: selection with labelled antibiotic
[3] = test system: E. coli KA797 cells carrying pUK21 with TEM-1 Y105R; format: cell-based, Escherichia coli; settings: antibiotic alone
[4] = test system: E. coli KA797 cells carrying TEM-1 position 105 library; format: cell-based; settings: for Fi carbenicillin AVG: average of replicates
[5] = test system: E. coli KA797 cells carrying pUK21 with CTX-M-14 WT (Tat); experiment: microbe, parasite or virus in culture; format: cell-based; settings: Escherichia coli, antibiotic alone
BlaC WT = target: T1, BlaC WT (Mycobacterium tuberculosis, UniProt P9WKD3); format: biochemical; settings: pH 6.4
T1 construct: correspond to residue numbers 41-307 of BlaC (Uniprot entry P9WKD3-1); His tag with TEV cleavage site (N); made in house; host or cells: E. coli BL21 (DE3) pLysS

TEM-1 Y105G = TEM-1 Y105G (Escherichia coli, UniProt P62593, Y103G); experiment: Steady-state kinetics of substrate hydrolysis, TEM-1 Y105G; format: biochemical; settings: phosphate buffer pH 6.4, 25 °C
[6] = test system: E. coli KA797 cells carrying pUK21 with CTX-M-14 Y105G; format: cell-based, Escherichia coli; settings: antibiotic alone
CTX-M-14 Y105G = target: T2, CTX-M-14 Y105G (Escherichia coli, UniProt Q9L5C7, Y108G); format: biochemical
T2 construct: 29 to 291 of CTX-M-14 (Q9L5C7); His tag with TEV cleavage site (N); made in house; host or cells: E. coli BL21 (DE3) pLysS

[7] = test system: E. coli KA797 cells carrying pUK21 with BlaC I105R; format: cell-based, Escherichia coli; settings: antibiotic alone
[8] = test system: E. coli KA797 cells carrying pUK21 with TEM-1 WT (Sec); experiment: microbe, parasite or virus in culture; format: cell-based; settings: Escherichia coli, antibiotic alone
[9] = test system: E. coli KA797 cells carrying pUK21 with CTX-M-14 Y105R; format: cell-based, Escherichia coli; settings: antibiotic alone

## CC1(C)S[C@@H]2[C@H](NC(=O)C(C(=O)O)c3ccccc3)C(=O)N2[C@H]1C(=O)O (stereo partly drawn) [carbenicillin]
[1]
  MIC: 400 µg/mL (≈ 1.06 mM)
[2]; KPC-2 AA 105 = Ala
  Fi AVG (average fitness of replicates): -1.895
[2]; KPC-2 AA 105 = Arg
  Fi AVG (average fitness of replicates): -0.930
  Significance of average fitness: -
[2]; KPC-2 AA 105 = Asn
  Fi AVG (average fitness of replicates): -1.475
[2]; KPC-2 AA 105 = Asp
  Fi AVG (average fitness of replicates): -1.100
  Significance of average fitness: -
[2]; KPC-2 AA 105 = Cys
  Fi AVG (average fitness of replicates): -1.311
  Significance of average fitness: -
[2]; KPC-2 AA 105 = Gln
  Fi AVG (average fitness of replicates): -2.037
  Significance of average fitness: -
[2]; KPC-2 AA 105 = Glu
  Fi AVG (average fitness of replicates): -1.844
[2]; KPC-2 AA 105 = Gly
  Fi AVG (average fitness of replicates): -1.656
  Significance of average fitness: -
[2]; KPC-2 AA 105 = His
  Fi AVG (average fitness of replicates): 0.833
  Significance of average fitness: +
[2]; KPC-2 AA 105 = Ile
  Fi AVG (average fitness of replicates): -0.975
[2]; KPC-2 AA 105 = Leu
  Fi AVG (average fitness of replicates): -1.769
  Significance of average fitness: -
[2]; KPC-2 AA 105 = Met
  Fi AVG (average fitness of replicates): -2.969
[2]; KPC-2 AA 105 = Phe
  Fi AVG (average fitness of replicates): -1.337
  Significance of average fitness: -
[2]; KPC-2 AA 105 = Ser
  Fi AVG (average fitness of replicates): -2.334
  Significance of average fitness: -
[2]; KPC-2 AA 105 = Thr
  Fi AVG (average fitness of replicates): -0.740
  Significance of average fitness: -
[2]; KPC-2 AA 105 = Trp (WT, reference)
  Fi AVG (average fitness of replicates): 0.000
[2]; KPC-2 AA 105 = Tyr
  Fi AVG (average fitness of replicates): -1.021
  Significance of average fitness: -
[2]; KPC-2 AA 105 = Val
  Fi AVG (average fitness of replicates): -2.800
  Significance of average fitness: -
[2]; KPC-2 WT (Trp 105), replicate 1
  WT abs Fi 1 (absolute fitness): 0.136
[2]; KPC-2 WT (Trp 105), replicate 2
  WT abs Fi 2 (absolute fitness): -0.163
[2]; KPC-2 WT (Trp 105), replicate 3
  WT abs Fi 3 (absolute fitness): 0.473
[3]
  MIC: 4000 µg/mL (≈ 10.6 mM)
[4]; AA 105 Ala
  Significance (Average fitnes carbenicillin): -
  Fi carbenicillin AVG: -0.528
[4]; AA 105 Ala, replicate 1
  Fi CAR 1: -0.503
[4]; AA 105 Ala, replicate 2
  Fi CAR 2: -0.553
[4]; AA 105 Arg
  Significance (Average fitnes carbenicillin): -
  Fi carbenicillin AVG: -0.371
[4]; AA 105 Arg, replicate 1
  Fi CAR 1: -0.360
[4]; AA 105 Arg, replicate 2
  Fi CAR 2: -0.382
[4]; AA 105 Asn
  Fi carbenicillin AVG: -0.119
[4]; AA 105 Asn, replicate 1
  Fi CAR 1: -0.088
[4]; AA 105 Asn, replicate 2
  Fi CAR 2: -0.150
[4]; AA 105 Asp
  Significance (Average fitnes carbenicillin): -
  Fi carbenicillin AVG: -1.040
[4]; AA 105 Asp, replicate 1
  Fi CAR 1: -1.009
[4]; AA 105 Asp, replicate 2
  Fi CAR 2: -1.070
[4]; AA 105 Cys
  Significance (Average fitnes carbenicillin): -
  Fi carbenicillin AVG: -0.639
[4]; AA 105 Cys, replicate 1
  Fi CAR 1: -0.611
[4]; AA 105 Cys, replicate 2
  Fi CAR 2: -0.666
[4]; AA 105 Gln
  Significance (Average fitnes carbenicillin): -
  Fi carbenicillin AVG: -0.400
[4]; AA 105 Gln, replicate 1
  Fi CAR 1: -0.384
[4]; AA 105 Gln, replicate 2
  Fi CAR 2: -0.417
[4]; AA 105 Glu
  Significance (Average fitnes carbenicillin): -
  Fi carbenicillin AVG: -0.893
[4]; AA 105 Glu, replicate 1
  Fi CAR 1: -0.890
[4]; AA 105 Glu, replicate 2
  Fi CAR 2: -0.895
[4]; AA 105 Gly
  Fi carbenicillin AVG: -0.181
[4]; AA 105 Gly, replicate 1
  Fi CAR 1: -0.158
[4]; AA 105 Gly, replicate 2
  Fi CAR 2: -0.204
[4]; AA 105 His
  Fi carbenicillin AVG: -0.182
[4]; AA 105 His, replicate 1
  Fi CAR 1: -0.177
[4]; AA 105 His, replicate 2
  Fi CAR 2: -0.187
[4]; AA 105 Ile
  Significance (Average fitnes carbenicillin): -
  Fi carbenicillin AVG: -0.707
[4]; AA 105 Ile, replicate 1
  Fi CAR 1: -0.683
[4]; AA 105 Ile, replicate 2
  Fi CAR 2: -0.731
[4]; AA 105 Leu
  Significance (Average fitnes carbenicillin): -
  Fi carbenicillin AVG: -0.631
[4]; AA 105 Leu, replicate 1
  Fi CAR 1: -0.615
[4]; AA 105 Leu, replicate 2
  Fi CAR 2: -0.647
[4]; AA 105 Lys
  Significance (Average fitnes carbenicillin): -
  Fi carbenicillin AVG: -0.496
[4]; AA 105 Lys, replicate 1
  Fi CAR 1: -0.486
[4]; AA 105 Lys, replicate 2
  Fi CAR 2: -0.506
[4]; AA 105 Met
  Significance (Average fitnes carbenicillin): -
  Fi carbenicillin AVG: -0.369
[4]; AA 105 Met, replicate 1
  Fi CAR 1: -0.357
[4]; AA 105 Met, replicate 2
  Fi CAR 2: -0.382
[4]; AA 105 Phe
  Fi carbenicillin AVG: -0.152
[4]; AA 105 Phe, replicate 1
  Fi CAR 1: -0.133
[4]; AA 105 Phe, replicate 2
  Fi CAR 2: -0.171
[4]; AA 105 Pro
  Significance (Average fitnes carbenicillin): -
  Fi carbenicillin AVG: -0.936
[4]; AA 105 Pro, replicate 1
  Fi CAR 1: -0.929
[4]; AA 105 Pro, replicate 2
  Fi CAR 2: -0.943
[4]; AA 105 Ser
  Significance (Average fitnes carbenicillin): -
  Fi carbenicillin AVG: -0.354
[4]; AA 105 Ser, replicate 1
  Fi CAR 1: -0.356
[4]; AA 105 Ser, replicate 2
  Fi CAR 2: -0.352
[4]; AA 105 Thr
  Significance (Average fitnes carbenicillin): -
  Fi carbenicillin AVG: -0.562
[4]; AA 105 Thr, replicate 1
  Fi CAR 1: -0.532
[4]; AA 105 Trp
  Fi carbenicillin AVG: -0.027
[4]; AA 105 Trp, replicate 1
  Fi CAR 1: -0.012
[4]; AA 105 Trp, replicate 2
  Fi CAR 2: -0.043
[4]; AA 105 Tyr
  Fi carbenicillin AVG: 0.000
[4]; AA 105 Tyr, replicate 1
  Fi CAR 1: 0.000
[4]; AA 105 Tyr, replicate 2
  Fi CAR 2: 0.000
[4]; AA 105 Val
  Significance (Average fitnes carbenicillin): -
  Fi carbenicillin AVG: -0.544
[4]; AA 105 Val, replicate 1
  Fi CAR 1: -0.508
[4]; AA 105 Val, replicate 2
  Fi CAR 2: -0.579
[4]; absolute fitness of TEM-1 WT, carbenicillin, replicate 1
  WT abs Fi 1: 0.724
[4]; absolute fitness of TEM-1 WT, carbenicillin, replicate 2
  WT abs Fi 2: 0.359
[5]
  MIC: 16000 µg/mL (≈ 42.3 mM)
BlaC WT
  kcat: 0.51 ± 00.2 s⁻¹
BlaC WT; read-out: KM^app
  Km: 5.5 ± 0.7 µM
TEM-1 Y105G
  kcat: 59.0 ± 0.3 s⁻¹
[6]
  MIC: 1000 µg/mL (≈ 2.64 mM)
CTX-M-14 Y105G; phosphate buffer pH 6.4, 25 °C
  kcat: 11 ± 2 s⁻¹
CTX-M-14 Y105G; read-out: KM^app, phosphate buffer pH 6.4, 25 °C
  Km: 228 ± 61 µM
[7]
  MIC: 1600 µg/mL (≈ 4.23 mM)
[8]
  MIC: 32000 µg/mL (≈ 84.6 mM)
[9]
  MIC: 2000 µg/mL (≈ 5.29 mM)
